Results: PubChem BioAssay (NCI)
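Method: 48-hour compound exposure of cells in 96-well plates, five concentrations, linear interpolation of endpoints. Here, GI50 denotes the concentration required for 50% inhibition of growth. TGI: total growth inhibition.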

Key:
Assay in all cases: NCI anticancer screen, dose series, 48 h
HOP-62 NSCLC = system: HOP-62 NSCLC
COLO 205 colon = system: COLO 205 colon
RPMI-8226 leukemia = system: RPMI-8226 leukemia
NCI/ADR-RES ovarian = system: NCI/ADR-RES ovarian
HT29 colon = system: HT29 colon
SF-295 CNS = system: SF-295 CNS
786-0 renal = system: 786-0 renal
SR leukemia = system: SR leukemia
MDA-MB-231 breast = system: MDA-MB-231 breast
NCI-H226 lung = system: NCI-H226 lung
NCI-H460 lung = system: NCI-H460 lung
OVCAR-8 ovarian = system: OVCAR-8 ovarian
OVCAR-5 ovarian = system: OVCAR-5 ovarian
UACC-257 melanoma = system: UACC-257 melanoma
T-47D breast = system: T-47D breast
SK-MEL-5 melanoma = system: SK-MEL-5 melanoma
CCRF-CEM leukemia = system: CCRF-CEM leukemia
MOLT-4 leukemia = system: MOLT-4 leukemia
LOX IMVI melanoma = system: LOX IMVI melanoma
SNB-19 CNS = system: SNB-19 CNS
CAKI-1 renal = system: CAKI-1 renal
BT-549 breast = system: BT-549 breast
HCT-116 colon = system: HCT-116 colon
NCI-H23 lung = system: NCI-H23 lung
SK-OV-3 ovarian = system: SK-OV-3 ovarian
HCT-15 colon = system: HCT-15 colon
SK-MEL-2 melanoma = system: SK-MEL-2 melanoma
SF-539 CNS = system: SF-539 CNS
HOP-92 NSCLC = system: HOP-92 NSCLC
PC-3 prostate = system: PC-3 prostate
SF-268 CNS = system: SF-268 CNS
EKVX NSCLC = system: EKVX NSCLC
SN12C renal = system: SN12C renal
A549 NSCLC = system: A549 NSCLC
NCI-H522 lung = system: NCI-H522 lung
SNB-75 CNS = system: SNB-75 CNS
MDA-MB-435 = system: MDA-MB-435
MALME-3M melanoma = system: MALME-3M melanoma
SW-620 colon = system: SW-620 colon
SK-MEL-28 melanoma = system: SK-MEL-28 melanoma
U251 CNS = system: U251 CNS
KM12 colon = system: KM12 colon
HS 578T breast = system: HS 578T breast
DU-145 prostate = system: DU-145 prostate
OVCAR-3 ovarian = system: OVCAR-3 ovarian
OVCAR-4 ovarian = system: OVCAR-4 ovarian
IGROV1 ovarian = system: IGROV1 ovarian
M14 melanoma = system: M14 melanoma
ACHN renal = system: ACHN renal
HL-60(TB) leukemia = system: HL-60(TB) leukemia
MCF7 breast = system: MCF7 breast
UACC-62 melanoma = system: UACC-62 melanoma
TK-10 renal = system: TK-10 renal
K-562 leukemia = system: K-562 leukemia
A498 renal = system: A498 renal
UO-31 renal = system: UO-31 renal
HCC-2998 colon = system: HCC-2998 colon
RXF 393 renal = system: RXF 393 renal

Compound: c1cc(N2CCN(c3ccc(C4=NCCN4)cc3)CC2)ccc1C1=NCCN1
- GI50 (HOP-62 NSCLC): 16 µM
- TGI (HOP-62 NSCLC): 58.7 µM
- GI50 (COLO 205 colon): > 100 µM
- TGI (COLO 205 colon): > 100 µM
- GI50 (RPMI-8226 leukemia): 12.8 µM
- TGI (RPMI-8226 leukemia): > 53.5 µM
- GI50 (NCI/ADR-RES ovarian): > 100 µM
- TGI (NCI/ADR-RES ovarian): > 100 µM
- GI50 (HT29 colon): > 100 µM
- TGI (HT29 colon): > 100 µM
- GI50 (SF-295 CNS): 24.8 µM
- TGI (SF-295 CNS): > 80.4 µM
- GI50 (786-0 renal): > 68.9 µM
- TGI (786-0 renal): > 100 µM
- GI50 (SR leukemia): 30.8 µM
- TGI (SR leukemia): > 100 µM
- GI50 (MDA-MB-231 breast): > 100 µM
- TGI (MDA-MB-231 breast): > 100 µM
- GI50 (NCI-H226 lung): > 80.6 µM
- TGI (NCI-H226 lung): > 100 µM
- GI50 (NCI-H460 lung): 24.9 µM
- TGI (NCI-H460 lung): > 100 µM
- GI50 (OVCAR-8 ovarian): 37.2 µM
- TGI (OVCAR-8 ovarian): > 100 µM
- GI50 (OVCAR-5 ovarian): > 100 µM
- TGI (OVCAR-5 ovarian): > 100 µM
- GI50 (UACC-257 melanoma): 58.7 µM
- TGI (UACC-257 melanoma): 97.5 µM
- GI50 (T-47D breast): > 100 µM
- TGI (T-47D breast): > 100 µM
- GI50 (SK-MEL-5 melanoma): 22.4 µM
- TGI (SK-MEL-5 melanoma): > 68.8 µM
- GI50 (CCRF-CEM leukemia): > 87.4 µM
- TGI (CCRF-CEM leukemia): > 100 µM
- GI50 (MOLT-4 leukemia): > 100 µM
- TGI (MOLT-4 leukemia): > 100 µM
- GI50 (LOX IMVI melanoma): > 100 µM
- TGI (LOX IMVI melanoma): > 100 µM
- GI50 (SNB-19 CNS): > 100 µM
- TGI (SNB-19 CNS): > 100 µM
- GI50 (CAKI-1 renal): > 57.5 µM
- TGI (CAKI-1 renal): > 100 µM
- GI50 (BT-549 breast): 24.9 µM
- TGI (BT-549 breast): > 84.5 µM
- GI50 (HCT-116 colon): > 100 µM
- TGI (HCT-116 colon): > 100 µM
- GI50 (NCI-H23 lung): > 44.4 µM
- TGI (NCI-H23 lung): > 100 µM
- GI50 (SK-OV-3 ovarian): > 100 µM
- TGI (SK-OV-3 ovarian): > 100 µM
- GI50 (HCT-15 colon): 66.3 µM
- TGI (HCT-15 colon): > 100 µM
- GI50 (SK-MEL-2 melanoma): 52.4 µM
- TGI (SK-MEL-2 melanoma): > 100 µM
- GI50 (SF-539 CNS): 55.4 µM
- TGI (SF-539 CNS): > 100 µM
- GI50 (HOP-92 NSCLC): > 100 µM
- TGI (HOP-92 NSCLC): > 100 µM
- GI50 (PC-3 prostate): > 73.6 µM
- TGI (PC-3 prostate): > 100 µM
- GI50 (SF-268 CNS): > 75.3 µM
- TGI (SF-268 CNS): > 100 µM
- GI50 (EKVX NSCLC): 11.5 µM
- TGI (EKVX NSCLC): 65.2 µM
- GI50 (SN12C renal): 1.85 µM
- TGI (SN12C renal): > 26.4 µM
- GI50 (A549 NSCLC): 66.7 µM
- TGI (A549 NSCLC): > 100 µM
- GI50 (NCI-H522 lung): 21.2 µM
- TGI (NCI-H522 lung): > 77.3 µM
- GI50 (SNB-75 CNS): > 100 µM
- TGI (SNB-75 CNS): > 100 µM
- GI50 (MDA-MB-435): 58 µM
- TGI (MDA-MB-435): > 100 µM
- GI50 (MALME-3M melanoma): 48.8 µM
- TGI (MALME-3M melanoma): > 100 µM
- GI50 (SW-620 colon): > 100 µM
- TGI (SW-620 colon): > 100 µM
- GI50 (SK-MEL-28 melanoma): > 67.5 µM
- TGI (SK-MEL-28 melanoma): > 100 µM
- GI50 (U251 CNS): 32.7 µM
- TGI (U251 CNS): > 100 µM
- GI50 (KM12 colon): > 49 µM
- TGI (KM12 colon): > 96.1 µM
- GI50 (HS 578T breast): 25.1 µM
- TGI (HS 578T breast): > 78.2 µM
- GI50 (DU-145 prostate): 45.7 µM
- TGI (DU-145 prostate): > 100 µM
- GI50 (OVCAR-3 ovarian): > 46.9 µM
- TGI (OVCAR-3 ovarian): > 86 µM
- GI50 (OVCAR-4 ovarian): > 100 µM
- TGI (OVCAR-4 ovarian): > 100 µM
- GI50 (IGROV1 ovarian): 55.9 µM
- TGI (IGROV1 ovarian): > 100 µM
- GI50 (M14 melanoma): > 61 µM
- TGI (M14 melanoma): > 100 µM
- GI50 (ACHN renal): > 100 µM
- TGI (ACHN renal): > 100 µM
- GI50 (HL-60(TB) leukemia): > 100 µM
- TGI (HL-60(TB) leukemia): > 100 µM
- GI50 (MCF7 breast): 24.6 µM
- TGI (MCF7 breast): > 100 µM
- GI50 (UACC-62 melanoma): 41.9 µM
- TGI (UACC-62 melanoma): > 100 µM
- GI50 (TK-10 renal): 43 µM
- TGI (TK-10 renal): 98.9 µM
- GI50 (K-562 leukemia): 39.4 µM
- TGI (K-562 leukemia): > 100 µM
- GI50 (A498 renal): 7.5 µM
- TGI (A498 renal): > 100 µM
- GI50 (UO-31 renal): > 72 µM
- TGI (UO-31 renal): > 100 µM

Compound: COC(=O)Cc1ccc(Oc2nc3ccccc3nc2-c2cccs2)cc1
- TGI (HOP-62 NSCLC): > 100 µM
- TGI (COLO 205 colon): > 100 µM
- TGI (RPMI-8226 leukemia): > 100 µM
- TGI (NCI/ADR-RES ovarian): > 100 µM
- TGI (HT29 colon): > 100 µM
- TGI (SF-295 CNS): > 100 µM
- TGI (786-0 renal): > 100 µM
- TGI (SR leukemia): > 100 µM
- TGI (MDA-MB-231 breast): > 100 µM
- TGI (NCI-H226 lung): 99.8 µM
- TGI (NCI-H460 lung): > 100 µM
- TGI (OVCAR-8 ovarian): > 100 µM
- TGI (OVCAR-5 ovarian): > 100 µM
- TGI (UACC-257 melanoma): > 100 µM
- TGI (T-47D breast): > 100 µM
- TGI (SK-MEL-5 melanoma): > 100 µM
- TGI (CCRF-CEM leukemia): > 100 µM
- TGI (MOLT-4 leukemia): > 100 µM
- TGI (LOX IMVI melanoma): > 100 µM
- TGI (SNB-19 CNS): > 100 µM
- TGI (CAKI-1 renal): > 100 µM
- TGI (BT-549 breast): > 100 µM
- TGI (HCT-116 colon): > 100 µM
- TGI (NCI-H23 lung): > 100 µM
- TGI (HCC-2998 colon): > 100 µM
- TGI (SK-OV-3 ovarian): 92.2 µM
- TGI (HCT-15 colon): > 100 µM
- TGI (SK-MEL-2 melanoma): > 100 µM
- TGI (SF-539 CNS): > 100 µM
- TGI (HOP-92 NSCLC): 63.3 µM
- TGI (PC-3 prostate): > 100 µM
- TGI (SF-268 CNS): > 100 µM
- TGI (EKVX NSCLC): > 100 µM
- TGI (SN12C renal): > 100 µM
- TGI (A549 NSCLC): > 100 µM
- TGI (RXF 393 renal): 48.5 µM
- TGI (NCI-H522 lung): > 100 µM
- TGI (SNB-75 CNS): 24.7 µM
- TGI (MDA-MB-435): > 100 µM
- TGI (MALME-3M melanoma): > 100 µM
- TGI (SW-620 colon): > 100 µM
- TGI (SK-MEL-28 melanoma): > 100 µM
- TGI (U251 CNS): > 100 µM
- TGI (KM12 colon): > 100 µM
- TGI (HS 578T breast): > 100 µM
- TGI (DU-145 prostate): > 100 µM
- TGI (OVCAR-3 ovarian): > 100 µM
- TGI (OVCAR-4 ovarian): > 100 µM
- TGI (IGROV1 ovarian): > 100 µM
- TGI (M14 melanoma): > 100 µM
- TGI (ACHN renal): > 100 µM
- TGI (HL-60(TB) leukemia): > 100 µM
- TGI (MCF7 breast): > 100 µM
- TGI (UACC-62 melanoma): > 100 µM
- TGI (TK-10 renal): > 100 µM
- TGI (K-562 leukemia): > 100 µM
- TGI (UO-31 renal): > 100 µM
